Experimental data as given in US6365623B1, “Treatment of acne using lipoic acid” (priority 1997, dated 2002).
Values joined by “and” are separate entries in the source; they are usually repeats but may differ in a detail not shown here. Identical values can stand only once.

Tests used:
affected skin areas = assay: Adverse side effects in clinical studies to date (topical application); assay type: in vivo, human
Source text: Generally in the practice of the method of the invention, the composition is topically applied to the affected skin areas in a predetermined or as-needed regimen either at intervals by application of a lotion or the like, it generally being the case that gradual improvements is noted with each successive application.

[1] = tested on: patients with acne vulgaris and/or acneiform scars; assay: Clinical study of 5% lipoic acid cream applied to the face, assessed by a dermatologist; assay type: in vivo, human
Procedure: The following examples are presented to further illustrate and explain the present invention and should not be taken as limiting in any regard. Unless otherwise indicated, all percentages are by weight. Lipoic acid was supplied by the Henkel Corporation and was placed into a lecithin-based oil-in-water cream at a level of 5% for use by acne patients. This composition was used in the studies unless otherwise indicated.
Eight patients with acne vulgaris and/or acneiform scars were evaluated and photographed at the beginning of the study. The patients were asked to cleanse their faces with Cetaphil™ lotion twice daily, and then to apply the test lipoic acid composition. Clinical evaluations were made every four weeks thereafter. Photographs were retaken at the end of twelve weeks, and five patients continued treatment for up to a year.
The following parameters were reported in clinical assessments by a dermatologist in the follow-up evaluations:
1. visibly apparent changes in erythema
2. visibly apparent changes in pore size

[2] = Skin penetration after topical application; assay type: in vivo; details: four hours after application to skin
Source text: While not wishing to be bound to any theory, it is possible that lipoic acid is efficacious in the treatment of acne because it is both fat- and water-soluble and readily disperses in cell membranes and other cellular components. […] Because of its solubility, it is sometimes referred to as a universal antioxidant. It acts as a free radical scavenger and neutralizer, and prevents the cross-linking of cell membranes that is often seen in acne in its post-inflammatory phases. By the same token, LA modulation of free radicals and other oxidative species affects gene expression, including expression of nuclear factor κ-B (NF-κB), nitric oxide synthetase and other mediators at all stages of proinflammation and inflammation. Lipoic acid's alteration of lipid peroxidation, protein cross-linking, growth factor stimulation, and membrane permeability may explain its negative effect on the symptoms of acne.

[3] = 5% lipoic acid in lecithin-based oil-in-water cream, topical twice daily, one value per patient (Pt. #1-#8)

**Q.** Which results are given for O=C(O)CCCCC1CCSS1 (centres unmarked) [lipoic acid, 1,2-dithiolane-3-pentanoic acid]?
**A.** adverse side effects (affected skin areas): no adverse side effects; improvement in two patients with severe atrophic acne scars ([1]; 5% cream, topical twice daily): 80%; improvement of atrophic scars, all patients with atrophic scars ([1]; 5% cream, topical twice daily): improved; change in pustules, papules, and comedones ([1]; 5% cream, within three to four weeks, benefits continued to increase over three to four months): marked decrease; Erythema % Improvement [1, 3]: 80% (3×) and 50% (5×); Pore Size % Improvement [1, 3]: 50% (3×) and 90% (5×); Scar Depth % Improvement [1, 3]: 50% (4×) and 80% (2×) and 70% (2×); concentration in sebaceous gland tissue [2]: high concentrations
